One data set concerns LNCaP ARE-Luc. In words: Luciferase assay in LNCaP cell lysates (LNCaP ARE-Luc). It is filed as cell-based. The settings on record: Homo sapiens, Firefly Luciferase Assay System, read-out: LNCaP ARE-Luc % inhibition IC50 Ranges. On the procedure: Lysates were thawed on ice then collected into V-bottom 96-well tissue culture plates. Lysates were centrifuged at 4° C. for 5 minutes at 4000 rpm. To measure luminescence of LNCaP cell lysates the Firefly Luciferase Assay System (Promega) was employed, according to manufacturer's protocol. Relative luminescence units (RLU) in cell lysates were detected for 10 seconds using Promega GoMax-Multi Detection Luminometer (Promega).
Statistical analyses were performed using GraphPad Prism (Version 6.01 for Windows; La Jolla, Calif., USA). Comparisons between treatment and control groups were compared using Two-Way ANOVA with post-hoc Dunnett's and Tukey's tests. Differences were considered statistically significant at P values less than 0.05. Densitometric quantification of relative AR levels was determined by Image.

A short description of data set [1]: Microsomal stability assay, HLM. The settings on record: human, pH 7.4, 1 μM test compound, 0.5 mg/mL liver microsomes protein, 37° C., 0-60 min, read-out: HLM +/− NADPH: Clint (μL/min/mg protein). Format: in vitro ADME. An excerpt:
Microsomal Stability Assay: Microsomal stability assay is a widely used in vitro model to characterize the metabolic conversion by phase I enzymes, such as cytochrome P450 (CYP) enzymes. Since metabolism is known to be highly variable in different species, microsomal stability assay is commonly run in multiple species. Metabolic stability of testing compound can be evaluated using human, rat, mouse, or other animal liver or intestine microsomes to predict intrinsic clearance.
The assay was carried out in 96-well microtiter plates at 37° C. Reaction mixtures (25 μL) contained a final concentration of 1 μM test compound, 0.5 mg/mL liver microsomes protein, and 1 mM NADPH and/or 1 mM UDPGA (with alamethicin) in 100 mM potassium phosphate, pH 7.4 buffer with 3 mM MgCl2. The incubation was done with N=1, but duplicate incubation at each time point can be prepared if necessary. At each of the time points (for example, 0, 15, 30, and 60 minutes), 150 μL of quench solution (100% acetonitrile with 0.1% formic acid) with internal standard was transferred to each well. Besides the zero minute controls, mixtures containing the same components except the NADPH can also be prepared as the negative control. Verapamil was included as a positive control to verify assay performance. Plates were sealed, vortexed, and centrifuged at 4° C. for 15 minutes at 4000 rpm. The supernatant is transferred to fresh plates for LC/MS/MS analysis.
Summarized conditions: [Compound]=1 μM, [LM]=0.5 mg/mL, [NADPH]=1 mM and/or [UDPGA]=1 mM, Buffer=100 mM Potassium Phosphate, pH 7.4 with 3 mM MgCl2, Time=0, 15, 30, and 60 min, and Temperature=37° C.
All samples were analyzed on LC/MS/MS using an AB Sciex API 4000 instrument, coupled to a Shimadzu LC-20AD LC Pump system. Analytical samples were separated using a Waters Atlantis T3 dC18 reverse phase HPLC column (20 mm×2.1 mm) at a flow rate of 0.5 mL/min. The mobile phase consisted of 0.1% formic acid in water (solvent A) and 0.1% formic acid in 100% acetonitrile (solvent B).
The extent of metabolism is calculated as the disappearance of the test compound, compared to the 0-min time incubation. Initial rates are calculated for the compound concentration and used to determine half-life (t½) values and subsequently, the intrinsic clearance (Clint). Clint=(0.693)(1/t½ (min))(g of liver/kg of body weight)(mL incubation/mg of microsomal protein)(45 mg of microsomal protein/g of liver weight)

Some results are limits rather than exact numbers.

By IC50 is commonly meant the concentration that gives 50% inhibition.

Take `CC(C)(c1ccc(OCC(=O)CS(C)(=O)=O)cc1)c1cc(Cl)c(OC[C@H](O)CCl)c(Cl)c1` [A54(S), (S)-1-(4-(2-(3,5-dichloro-4-(3-chloro-2-hydroxypropoxy)phenyl)propan-2-yl)phenoxy)-3-(methylsulfonyl)propan-2-one]: in the data set with LNCaP ARE-Luc, the IC50 was at least 250 nM. On to `COc1cc(OCCCCl)ccc1C(C)(C)c1ccc(OCC(=O)CNS(C)(=O)=O)cc1` [Compound A4], for which the IC50 in the data set on LNCaP ARE-Luc is at least 250 nM. Besides, the microsomal CLint at 1 μM in data set [1] was at least 48 µL/min/mg. On the same counts, the results for `CC(C)(c1ccc(OCC(=O)CNS(C)(=O)=O)cc1)c1ccc(OCCCCl)cc1Cl` [Compound A6] are at least 250 nM and at least 48 µL/min/mg. For `CC(C)(c1ccc(OCC(=O)CNS(C)(=O)=O)cc1)c1ccc(OCCCCl)c(C#N)c1` [Compound A7], in the data set with LNCaP ARE-Luc, the IC50 was below 100 nM. Moreover, the microsomal CLint at 1 μM in data set [1] is at least 48 µL/min/mg. For `COc1cc(C(C)(C)c2ccc(OCCCCl)cc2)ccc1OCC(=O)CNS(C)(=O)=O` [Compound A11] the same measures were at least 250 nM and at least 48 µL/min/mg.

Turning to `COc1cc(OCC(=O)CNS(C)(=O)=O)ccc1C(C)(C)c1ccc(OCCCCl)cc1` [Compound A12], the IC50 in the data set with LNCaP ARE-Luc was at least 250 nM. Besides, the microsomal CLint at 1 μM in data set [1] is at least 48 µL/min/mg. For `CC(C)(c1ccc(OCCCCl)cc1)c1ccc(OCC(=O)CNS(C)(=O)=O)cc1Cl` [Compound A14], the IC50 with LNCaP ARE-Luc was at least 250 nM. Also, in data set [1], the microsomal CLint at 1 μM is at least 48 µL/min/mg. In the case of `CC(C)(c1ccc(OCCCCl)cc1)c1ccc(OCC(=O)CNS(C)(=O)=O)c(C#N)c1` [Compound A15], the IC50 with LNCaP ARE-Luc was at least 250 nM. The microsomal CLint at 1 μM in data set [1] was at least 48 µL/min/mg. For `CS(=O)(=O)NCC(=O)COc1cccc(Cc2ccc(Cl)c(OCCCCl)c2Cl)c1` [Compound A24], in the data set on LNCaP ARE-Luc, the IC50 is at least 250 nM. Further, in data set [1], the microsomal CLint at 1 μM is at least 48 µL/min/mg.

As for `CC(CCl)COc1c(Cl)cc(C(C)(C)c2ccc(OCC(=O)CNS(C)(=O)=O)cc2)cc1Cl` (stereo not shown) [Compound A32], the IC50 in the data set on LNCaP ARE-Luc is below 100 nM. In addition, in data set [1], the microsomal CLint at 1 μM was at least 48 µL/min/mg. On to `CC(C)(c1ccc(OCC(=O)CNS(C)(=O)=O)cc1)c1cc(Cl)c(OCCCl)c(Cl)c1` [Compound A33, N-(3-(4-(2-(3,5-dichloro-4-(2-chloroethoxy)phenyl)propan-2-yl)phenoxy)-2-oxopropyl)methanesulfonamide], for which, in the data set on LNCaP ARE-Luc, the IC50 was below 100 nM. In data set [1], the microsomal CLint at 1 μM is at least 48 µL/min/mg. On to `CC(C)(c1ccc(OCC(=O)CNS(C)(=O)=O)cc1)c1cc(Cl)c(NCCCCl)c(Cl)c1` [Compound A35], for which the IC50 with LNCaP ARE-Luc was in the range of 100 to 250 nM. Besides, the microsomal CLint at 1 μM in data set [1] was at least 48 µL/min/mg. Turning to `CN(CCCCl)c1c(Cl)cc(C(C)(C)c2ccc(OCC(=O)CNS(C)(=O)=O)cc2)cc1Cl` [Compound A36], the IC50 in the data set with LNCaP ARE-Luc is 100 to 250 nM. Also, in data set [1], the microsomal CLint at 1 μM was at least 48 µL/min/mg.

`CC(C)(c1ccc(OCC(=O)CNS(C)(=O)=O)cc1)c1cc(Cl)c(OCc2ccc(Cl)cc2)c(Cl)c1` [Compound A38]: the IC50 with LNCaP ARE-Luc was at least 250 nM. In addition, in data set [1], the microsomal CLint at 1 μM is at least 48 µL/min/mg.

For `CS(=O)(=O)NCC(=O)COc1ccc(C2(c3cc(Cl)c(OCCCCl)c(Cl)c3)COC2)cc1` [Compound A43, N-(3-(4-(3-(3,5-dichloro-4-(3-chloropropoxy)phenyl)oxetan-3-yl)phenoxy)-2-oxopropyl)methanesulfonamide], the IC50 with LNCaP ARE-Luc was below 100 nM. Moreover, the microsomal CLint at 1 μM in data set [1] is at least 48 µL/min/mg. As to `CC(C)(c1ccc(OCC(=O)N2CCN(S(C)(=O)=O)CC2)cc1)c1cc(Cl)c(OCCCCl)c(Cl)c1` [Compound A44], the IC50 with LNCaP ARE-Luc is at least 250 nM. Moreover, the microsomal CLint at 1 μM in data set [1] was in the range of 12 to 48 µL/min/mg.

For `CC(C)(c1ccc(NC(=O)CCNS(C)(=O)=O)cc1)c1cc(Cl)c(OCCCCl)c(Cl)c1` [Compound A45], the IC50 with LNCaP ARE-Luc is at least 250 nM. Moreover, in data set [1], the microsomal CLint at 1 μM was below 12 µL/min/mg.

Consider `CC(C)(c1ccc(CNC(=O)CNS(C)(=O)=O)cc1)c1cc(Cl)c(OCCCCl)c(Cl)c1` [Compound A46, N-(4-(2-(3,5-dichloro-4-(3-chloropropoxy)phenyl)propan-2-yl)benzyl)-2-(methylsulfonamido)acetamide], for which, in the data set on LNCaP ARE-Luc, the IC50 is at least 250 nM. In addition, the microsomal CLint at 1 μM in data set [1] fell in the range of 12 to 48 µL/min/mg. With `CN(C)C(=O)NCc1ccc(C(C)(C)c2cc(Cl)c(OCCCCl)c(Cl)c2)cc1` [Compound A47], the IC50 in the data set with LNCaP ARE-Luc was at least 250 nM. The microsomal CLint at 1 μM in data set [1] is at least 48 µL/min/mg. For `CC(C)(c1ccc(OCC(=O)CNS(C)(=O)=O)c(F)c1)c1cc(Cl)c(OCCCCl)c(Cl)c1` [Compound A48] the same measures were 100 to 250 nM and at least 48 µL/min/mg. For the compound `CC(O)(CCl)COc1c(Cl)cc(C(C)(C)c2ccc(OCC(=O)CNS(C)(=O)=O)cc2)cc1Cl` (stereo not shown) [Compound A52, N-(3-(4-(2-(3,5-dichloro-4-(3-chloro-2-hydroxy-2-methylpropoxy)phenyl)propan-2-yl)phenoxy)-2-oxopropyl)methanesulfonamide], the half-inhibitory concentration (IC50) in the data set on LNCaP ARE-Luc was below 100 nM. Also, the microsomal CLint at 1 μM in data set [1] was at least 48 µL/min/mg. On to `CC(O)(CCl)COc1c(Cl)cc(C(C)(C)c2ccc(OCC(=O)CS(C)(=O)=O)cc2)cc1Cl` (stereo not shown) [Compound A53, 1-(4-(2-(3,5-dichloro-4-(3-chloro-2-hydroxy-2-methypropoxy)phenyl)propan-2-yl)phenoxy)-3-(methylsulfonyl)propan-2-one], for which the IC50 with LNCaP ARE-Luc is at least 250 nM. As for `CC(C)(c1ccc(OCC(=O)NCCNS(C)(=O)=O)cc1)c1cc(Cl)c(OCCCCl)c(Cl)c1` [Compound A62], in the data set with LNCaP ARE-Luc, the IC50 was at least 250 nM. In addition, the microsomal CLint at 1 μM in data set [1] was 12 to 48 µL/min/mg. For `CC(C)(Oc1ccc(C(C)(C)c2cc(Cl)c(OCCCCl)c(Cl)c2)cc1)C(=O)CNS(C)(=O)=O` [Compound A63] the same measures were below 100 nM and at least 48 µL/min/mg. `CC(C)(NS(C)(=O)=O)C(=O)COc1ccc(C(C)(C)c2cc(Cl)c(OCCCCl)c(Cl)c2)cc1` [Compound A64]: the IC50 in the data set on LNCaP ARE-Luc was at least 250 nM. Moreover, in data set [1], the microsomal CLint at 1 μM was below 12 µL/min/mg. Consider `CC(=O)COc1ccc(C(C)(C)c2cc(Cl)c(OCCCCl)c(Cl)c2)cc1` [Compound A74, 1-(4-(2-(3,5-dichloro-4-(3-chloropropoxy)phenyl)propan-2-yl)phenoxy)propan-2-one], for which the IC50 in the data set with LNCaP ARE-Luc is at least 250 nM. As for `CC(C)(c1ccc(OC(F)(F)C(=O)C(N)=O)cc1)c1cc(Cl)c(OCCCCl)c(Cl)c1` [Compound A92], the IC50 with LNCaP ARE-Luc was at least 250 nM. Still for that read-out and setting: the figure for `CC(=O)C(=O)Nc1ccc(C(C)(C)c2cc(Cl)c(OCC(C)(O)CCl)c(Cl)c2)cc1` (stereo not shown) [Compound A96] is at least 250 nM; for `COC(=O)C(OC)C(O)(O)C(F)(F)Oc1ccc(C(C)(C)c2cc(Cl)c(OCCCCl)c(Cl)c2)cc1` (stereo not shown) [Compound A97] it is 100 to 250 nM.

Turning to `CC(C)(c1ccc(OC(F)(F)C(=O)CNS(C)(=O)=O)cc1)c1cc(Cl)c(OCCCCl)c(Cl)c1` [Compound A99, N-(3-(4-(2-(3,5-dichloro-4-(3-chloropropoxy)phenyl)propan-2-yl)phenoxy)-3,3-difluoro-2-oxopropyl)methanesulfonamide], the IC50 with LNCaP ARE-Luc lay in the range of 100 to 250 nM. Turning to `COCC(=O)C(F)(F)Oc1ccc(C(C)(C)c2cc(Cl)c(OCCCCl)c(Cl)c2)cc1` [Compound A100, 1-(4-(2-(3,5-dichloro-4-(3-chloropropoxy)phenyl)propan-2-yl)phenoxy)-1,1-difluoro-3-methoxypropan-2-one], in the data set with LNCaP ARE-Luc, the concentration for half-maximal inhibition (IC50) is at least 250 nM. Turning to `CCOC(=O)CC(=O)C(F)(F)Oc1ccc(C(C)(C)c2cc(Cl)c(OCCCCl)c(Cl)c2)cc1` [Compound A101], the IC50 in the data set with LNCaP ARE-Luc was at least 250 nM. As for `CC(C)(c1ccc(OC(F)(F)C(=O)CS(C)(=O)=O)cc1)c1cc(Cl)c(OCCCCl)c(Cl)c1` [Compound A102], the IC50 in the data set with LNCaP ARE-Luc is at least 250 nM. On to `CC(=O)Oc1ccc(C(C)(C)c2cc(Cl)c(OCCCCl)c(Cl)c2)cc1` [Compound A103], for which the IC50 with LNCaP ARE-Luc is below 100 nM. Same read-out and setting: then `CC(=O)N(CC(=O)COc1ccc(C(C)(C)c2cc(Cl)c(OCCCCl)c(Cl)c2)cc1)S(C)(=O)=O` [Compound A104], with at least 250 nM.

The values above are taken from patent US11485713B2, “Androgen receptor modulators and methods for their use” (ESSA Pharma, Inc., priority 2018, dated 2022).
